This series is described as follows: recombinant UMI read abundance after kanamycin selection (control-corrected) (log10(CPM+1)); higher = more efficient recombination; extreme values may be limits of the assay; sequences stand for … in AGTGCAGAGAAAATCGGCCAGTTTTCTCTGCCTGCAGTCCGCATGCCGTGGGACCCCTTGGGTTCTAACCTGTTGCCTAGATTTATGCAGCGGACTGCCTTTCTCCCAAAGTGATAAACCGG…AGGTTGGTTTCACT; site = the 11-nt donor. Here is the method:
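Pooled E. coli donor-specificity screen for the IS621 bridge recombinase. Each library member carries a reprogrammed 11-nt donor and a full-length LE bridge RNA expressed in cis from the natural promoter, with a paired donor-binding loop (8-nt LDG + 4-nt RDG) and a target-binding loop fixed to T5. It is co-electroporated with a T5 target plasmid; recombinase is induced with 0.07 mM IPTG and recombinants are selected on kanamycin. UMIs are counted as CPM, averaged over two biological replicates and corrected by the unselected control. Molecule = full bridge RNA written as DNA, built from the T5 scaffold: LDG = donor specificity nt 1-8, RDG = reverse complement of nt 8-11.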
On to “AACGACGCATGGACCGGTTTTCCCGGTAATCCGTATTTGTA (site AACGACGCTTA)”, for which the “recombinant UMI read abundance (log10)” value is 1.99.
For “AACGAGCCATGGACCGGTTTTCCCGGTAATCCGTATTTGAA (site AACGAGCCTTT)”, the “recombinant UMI read abundance (log10)” value came out at 0.157.
The figure for “AACGCAACATGGACCGGTTTTCCCGGTAATCCGTATTTGTT (site AACGCAACTAA)” is 0.495; for “AACGCTGCATGGACCGGTTTTCCCGGTAATCCGTATTTGAA (site AACGCTGCTTT)” it is 1.06; for “AACGGAACATGGACCGGTTTTCCCGGTAATCCGTATTTGAT (site AACGGAACTAT)” it is 2.33.
To “AACGGTCCATGGACCGGTTTTCCCGGTAATCCGTATTTGGC (site AACGGTCCTGC)” belongs 0.
As to “AACGTTTCATGGACCGGTTTTCCCGGTAATCCGTATTTGCT (site AACGTTTCTAG)”, the “recombinant UMI read abundance (log10)” value stood at 2.48.
Regarding “AACTAGCCATGGACCGGTTTTCCCGGTAATCCGTATTTGCG (site AACTAGCCTCG)”, the “recombinant UMI read abundance (log10)” value came out at 0.00356.
For “AACTATACATGGACCGGTTTTCCCGGTAATCCGTATTTGAC (site AACTATACTGT)”, the “recombinant UMI read abundance (log10)” value amounted to 2.31.
To “AACTATACATGGACCGGTTTTCCCGGTAATCCGTATTTGAC (site ACCTATACTGT)” belongs 0.367; to “AACTATACATGGACCGGTTTTCCCGGTAATCCGTATTTGAC (site AGCTATACTGT)”, 0.797; to “AACTATACATGGACCGGTTTTCCCGGTAATCCGTATTTGAC (site ATCTATACTGT)”, 1.94.
Consider “AACTATGCATGGACCGGTTTTCCCGGTAATCCGTATTTGGA (site AAATATGCTTC)”, for which the “recombinant UMI read abundance (log10)” value was found to be 0.502.
Regarding “AACTATGCATGGACCGGTTTTCCCGGTAATCCGTATTTGGA (site AACTATGCTTC)”, the “recombinant UMI read abundance (log10)” value came out at 1.22.
In the case of “AACTATGCATGGACCGGTTTTCCCGGTAATCCGTATTTGGA (site AAGTATGCTTC)”, the “recombinant UMI read abundance (log10)” value was found to be 0.552.
To “AACTATGCATGGACCGGTTTTCCCGGTAATCCGTATTTGGA (site AATTATGCTTC)” belongs 0.908; to “AACTATTCATGGACCGGTTTTCCCGGTAATCCGTATTTGCG (site AACTATTCTCG)”, 2.02; to “AACTGGACATGGACCGGTTTTCCCGGTAATCCGTATTTGGG (site AACTGGACTCC)”, 0.0254.
For “AACTTGACATGGACCGGTTTTCCCGGTAATCCGTATTTGAC (site AACTTGACTGT)”, the “recombinant UMI read abundance (log10)” value came to 0.
Consider “AACTTGTCATGGACCGGTTTTCCCGGTAATCCGTATTTGGC (site AACTTGTCTGC)”, for which the “recombinant UMI read abundance (log10)” value amounted to 0.
As for “AAGAACACATGGACCGGTTTTCCCGGTAATCCGTATTTGCA (site AAGAACACTTG)”, the “recombinant UMI read abundance (log10)” value amounted to 2.85.
To “AAGAACACATGGACCGGTTTTCCCGGTAATCCGTATTTGCA (site AGGAAGACTTG)” belongs 0; to “AAGAAGACATGGACCGGTTTTCCCGGTAATCCGTATTTGAA (site AAGAAGACTTT)”, 2.39; to “AAGAAGACATGGACCGGTTTTCCCGGTAATCCGTATTTGAA (site AGGAAGACTTG)”, 0.
With “AAGAAGTCATGGACCGGTTTTCCCGGTAATCCGTATTTGTA (site AAGAAGTCTTA)”, the “recombinant UMI read abundance (log10)” value came to 3.3.
Regarding “AAGAGGACATGGACCGGTTTTCCCGGTAATCCGTATTTGCA (site AAGAGGACTTG)”, the “recombinant UMI read abundance (log10)” value came out at 2.65.
Take “AAGAGGACATGGACCGGTTTTCCCGGTAATCCGTATTTGCA (site AGGAAGACTTG)”: the “recombinant UMI read abundance (log10)” value was 1.62.
With “AAGCAAGCATGGACCGGTTTTCCCGGTAATCCGTATTTGGG (site AAGCAAGCTCC)”, the “recombinant UMI read abundance (log10)” value is 0.623.
The figure for “AAGCAAGCATGGACCGGTTTTCCCGGTAATCCGTATTTGGG (site AAGCACGCTCC)” is 0.0526; for “AAGCAAGCATGGACCGGTTTTCCCGGTAATCCGTATTTGGG (site AAGCAGGCTCC)” it is 0.
The figure for “AAGCAAGCATGGACCGGTTTTCCCGGTAATCCGTATTTGGG (site AAGCATGCTCC)” is 0.0463.
With “AAGCACACATGGACCGGTTTTCCCGGTAATCCGTATTTGGG (site AAGCACACTCC)”, the “recombinant UMI read abundance (log10)” value amounted to 0.242.
For “AAGCACACATGGACCGGTTTTCCCGGTAATCCGTATTTGGG (site AAGCACCCTCC)”, the “recombinant UMI read abundance (log10)” value was determined as 0.0138.
For the sequence “AAGCACACATGGACCGGTTTTCCCGGTAATCCGTATTTGGG (site AAGCACGCTCC)”, the “recombinant UMI read abundance (log10)” value was 0.0056.
Take “AAGCACACATGGACCGGTTTTCCCGGTAATCCGTATTTGGG (site AAGCACTCTCC)”: the “recombinant UMI read abundance (log10)” value is 0.222.
For the sequence “AAGCACTCATGGACCGGTTTTCCCGGTAATCCGTATTTGGG (site AAGCACACTCC)”, the “recombinant UMI read abundance (log10)” value is 0.0075.
As to “AAGCACTCATGGACCGGTTTTCCCGGTAATCCGTATTTGGG (site AAGCACCCTCC)”, the “recombinant UMI read abundance (log10)” value was found to be 0.00615.
To “AAGCACTCATGGACCGGTTTTCCCGGTAATCCGTATTTGGG (site AAGCACGCTCC)” belongs 0.0931.
To “AAGCACTCATGGACCGGTTTTCCCGGTAATCCGTATTTGGG (site AAGCACTCTCC)” belongs 1.57.
Turning to “AAGCCTGCATGGACCGGTTTTCCCGGTAATCCGTATTTGTA (site AAGCCTGCTTA)”, the “recombinant UMI read abundance (log10)” value came out at 0.811.
Turning to “AAGCGCGCATGGACCGGTTTTCCCGGTAATCCGTATTTGGG (site AAGCACGCTCC)”, the “recombinant UMI read abundance (log10)” value came out at 0.0182.
In the case of “AAGCGCGCATGGACCGGTTTTCCCGGTAATCCGTATTTGGG (site AAGCCCGCTCC)”, the “recombinant UMI read abundance (log10)” value was found to be 0.0103.
“AAGCGCGCATGGACCGGTTTTCCCGGTAATCCGTATTTGGG (site AAGCGCGCTCC)”: the “recombinant UMI read abundance (log10)” value stood at 0.214.
In the case of “AAGCGCGCATGGACCGGTTTTCCCGGTAATCCGTATTTGGG (site AAGCTCGCTCC)”, the “recombinant UMI read abundance (log10)” value stood at 0.0124.
In the case of “AAGCGTCCATGGACCGGTTTTCCCGGTAATCCGTATTTGAT (site AAACGTCCTAT)”, the “recombinant UMI read abundance (log10)” value stood at 0.245.
As for “AAGCGTCCATGGACCGGTTTTCCCGGTAATCCGTATTTGAT (site AACCGTCCTAT)”, the “recombinant UMI read abundance (log10)” value amounted to 0.281.
Regarding “AAGCGTCCATGGACCGGTTTTCCCGGTAATCCGTATTTGAT (site AAGCGTCCTAT)”, the “recombinant UMI read abundance (log10)” value came to 1.17.
For “AAGCGTCCATGGACCGGTTTTCCCGGTAATCCGTATTTGAT (site AATCGTCCTAT)”, the “recombinant UMI read abundance (log10)” value was found to be 0.017.
As for “AAGCTAGCATGGACCGGTTTTCCCGGTAATCCGTATTTGAA (site AAGCTAGCTTT)”, the “recombinant UMI read abundance (log10)” value is 2.09.
On to “AAGCTAGCATGGACCGGTTTTCCCGGTAATCCGTATTTGAA (site CAGCTAGCTTT)”, for which the “recombinant UMI read abundance (log10)” value was 1.37.
With “AAGCTAGCATGGACCGGTTTTCCCGGTAATCCGTATTTGAA (site GAGCTAGCTTT)”, the “recombinant UMI read abundance (log10)” value turned out to be 0.00246.
With “AAGCTAGCATGGACCGGTTTTCCCGGTAATCCGTATTTGAA (site TAGCTAGCTTT)”, the “recombinant UMI read abundance (log10)” value worked out at 1.48.
Turning to “AAGCTCGCATGGACCGGTTTTCCCGGTAATCCGTATTTGGG (site AAGCACGCTCC)”, the “recombinant UMI read abundance (log10)” value worked out at 0.0201.
Take “AAGCTCGCATGGACCGGTTTTCCCGGTAATCCGTATTTGGG (site AAGCCCGCTCC)”: the “recombinant UMI read abundance (log10)” value is 0.0313.
The figure for “AAGCTCGCATGGACCGGTTTTCCCGGTAATCCGTATTTGGG (site AAGCGCGCTCC)” is 0.0107; for “AAGCTCGCATGGACCGGTTTTCCCGGTAATCCGTATTTGGG (site AAGCTCGCTCC)” it is 0.0176; for “AAGGATCCATGGACCGGTTTTCCCGGTAATCCGTATTTGTT (site AAGGATCCTAA)” it is 1.19.
The figure for “AAGGGCTCATGGACCGGTTTTCCCGGTAATCCGTATTTGGA (site AAGGGCTCTTC)” is 1.96.
On to “AAGGTAACATGGACCGGTTTTCCCGGTAATCCGTATTTGCT (site AAAGTAACTAG)”, for which the “recombinant UMI read abundance (log10)” value was 2.59.
As for “AAGGTAACATGGACCGGTTTTCCCGGTAATCCGTATTTGCT (site AACGTAACTAG)”, the “recombinant UMI read abundance (log10)” value stood at 0.731.
The figure for “AAGGTAACATGGACCGGTTTTCCCGGTAATCCGTATTTGCT (site AAGGTAACTAG)” is 2.73.
For the sequence “AAGGTAACATGGACCGGTTTTCCCGGTAATCCGTATTTGCT (site AATGTAACTAG)”, the “recombinant UMI read abundance (log10)” value came out at 1.43.
In the case of “AAGGTTACATGGACCGGTTTTCCCGGTAATCCGTATTTGAA (site AAGGTTACTTT)”, the “recombinant UMI read abundance (log10)” value is 2.53.
For the sequence “AAGTAGGCATGGACCGGTTTTCCCGGTAATCCGTATTTGCA (site AAGTAGGCTTG)”, the “recombinant UMI read abundance (log10)” value is 2.63.
As for “AAGTCGTCATGGACCGGTTTTCCCGGTAATCCGTATTTGCG (site AAGTCGTCTCG)”, the “recombinant UMI read abundance (log10)” value amounted to 1.19.

(Values after the supplement of paper PMC11208160.)
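Further: IS621 bridge recombinase in Escherichia coli cells against a fixed T5 target plasmid.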
